Measurements reported in patent publication US11400059B2, “Treatment of pain and/or pain related symptoms associated with dysmenorrhea” (ALYRA BIOTECH PTY LTD, priority 2017, dated 2022).

Tests used:
Type in all cases: cell-based
Conditions in all cases: antagonist mode, Ami 1 μM
Human Dectin-1b = biological target: T1, Human Dectin-1b (Homo sapiens, UniProt Q9BXN2); assay: Human CLR antagonist screening, NF-κB SEAP reporter in HEK293 cells
T1 construct: expressed in transfected cells; host or cells: HEK293
T1 sequence (Q9BXN2 1-201 isoform Q9BXN2-2): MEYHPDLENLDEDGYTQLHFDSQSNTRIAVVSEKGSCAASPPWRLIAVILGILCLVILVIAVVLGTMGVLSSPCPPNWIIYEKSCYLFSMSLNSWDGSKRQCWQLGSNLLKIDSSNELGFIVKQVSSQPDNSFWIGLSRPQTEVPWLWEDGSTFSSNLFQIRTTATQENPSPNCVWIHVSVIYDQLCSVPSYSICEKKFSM
Experimental: Toll-Like Receptor (TLR), NOD-Like Receptor (NLR) and C-Type Lectin Receptor (CLR) stimulation were tested by assessing NF-κB activation in HEK293 cells expressing a given TLR, NLR or CLR. The activity of the test articles was tested at one concentration and compared to control ligands. These steps were performed in triplicate. hDectin-1a and hDectin-1b: WGP Soluble (0-glucan from S. cerevisiae) at 10 ng/mL Antagonist: 5 ng/mL. Curdlan at 100 μg/mL. Antagonist: 100 μg/mL. Zymosan Depleted (hot alkali treated S. cerevisiae) at 5 μg/mL Antagonist: 3 μg/mL. In a 96-well plate (200 μL total volume) containing the appropriate cells (50,000-75,000 cells/well), 20 μL of the test article or the positive control ligand was added to the wells. For the antagonist assay, the test article was incubated with the cells, at 37° C. with 5% CO2, for 30 minutes prior to the addition of the positive control ligand to the wells. The media added to the wells was designed for the detection of NF-κB induced SEAP expression. After a 16-24 hr incubation the optical density (OD) was read at 650 nm on a Molecular Devices SpectraMax 340PC absorbance detector. Fold induction (ratio of average induced value to average non-induced value) was determined for each TLR, NOD1, NOD2, Dectin-1a, Dectin-1b.

human MDA-5 = biological target: T2, human MDA-5 (Homo sapiens, UniProt Q9BYX4); assay: Human RLR antagonist screening, IRF3 luciferase reporter in HEK293 cells
T2 construct: expressed in transfected cells; host or cells: HEK293
T2 sequence (Q9BYX4 1-1025): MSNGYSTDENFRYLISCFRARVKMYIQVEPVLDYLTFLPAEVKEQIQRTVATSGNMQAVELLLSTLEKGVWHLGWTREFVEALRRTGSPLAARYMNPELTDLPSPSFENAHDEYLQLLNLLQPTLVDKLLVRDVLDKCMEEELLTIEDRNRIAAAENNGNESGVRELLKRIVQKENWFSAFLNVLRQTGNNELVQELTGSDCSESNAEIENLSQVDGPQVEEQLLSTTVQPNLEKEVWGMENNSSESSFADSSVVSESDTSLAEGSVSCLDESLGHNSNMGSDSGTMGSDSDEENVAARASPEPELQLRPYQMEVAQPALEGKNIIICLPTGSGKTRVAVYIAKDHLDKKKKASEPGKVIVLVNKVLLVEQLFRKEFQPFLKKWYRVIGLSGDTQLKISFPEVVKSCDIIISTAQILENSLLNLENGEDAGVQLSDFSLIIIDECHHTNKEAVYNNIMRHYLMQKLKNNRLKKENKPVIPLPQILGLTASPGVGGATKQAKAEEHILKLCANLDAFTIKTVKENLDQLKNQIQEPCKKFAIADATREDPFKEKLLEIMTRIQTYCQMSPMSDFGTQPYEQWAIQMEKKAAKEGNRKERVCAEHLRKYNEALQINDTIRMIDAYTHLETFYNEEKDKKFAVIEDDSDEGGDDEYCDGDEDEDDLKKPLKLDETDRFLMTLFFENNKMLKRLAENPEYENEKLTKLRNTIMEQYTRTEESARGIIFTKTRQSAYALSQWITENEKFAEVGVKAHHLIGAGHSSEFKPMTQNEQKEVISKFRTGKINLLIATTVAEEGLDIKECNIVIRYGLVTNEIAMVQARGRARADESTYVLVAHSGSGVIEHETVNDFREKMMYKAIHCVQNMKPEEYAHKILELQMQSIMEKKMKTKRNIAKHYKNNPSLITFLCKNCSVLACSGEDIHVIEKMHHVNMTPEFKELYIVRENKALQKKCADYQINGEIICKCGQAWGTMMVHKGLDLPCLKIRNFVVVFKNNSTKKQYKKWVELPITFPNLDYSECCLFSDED
Experimental: (§1) RIG-I and MDA-5 stimulation were tested by assessing IRF3 activation in HEK293 cells expressing human RIG-I or MDA-5 genes. The activity of the test articles was tested on human RIG-I and MDA-5 expressing cells as a potential agonist or antagonist. The test articles were evaluated at one concentration and compared to control ligands. This step was performed in triplicate. The results are provided as Relative Luminescence Units (RLUs). RIG-I/MDA-5: Poly(I:C)/LyoVec at 1 μg/mL Antagonist: 500 ng/mL. 5′ppp-dsRNA/LyoVec at 1 μg/mL Antagonist: 500 ng/mL. hIFNα at 1000 IU/mL. Antagonist: 100 IU/mL. In a 96-well plate (200 μL total volume) containing the appropriate cells (25,000-50,000 cells/well), 20 μL of the test article or of the positive control ligand was added to the wells. For the antagonist assay, the test article was incubated with the cells, at 37° C. with 5% CO2, for 30 minutes prior to the addition of the positive control ligand to the wells. After 20 hour incubation, activation of the IRF pathway was monitored using a luciferase detection assay. Luciferase activity was assayed in triplicate from the supernatant of the induced cells, and the relative luminescence units (RLUs) are detected by a Promega GloMax Luminometer. Fold induction (ratio of average induced value to average non-induced value).

human RIG-I = biological target: T3, human RIG-I (Homo sapiens, UniProt O95786); assay: as above
T3 construct: expressed in transfected cells; host or cells: HEK293
Experimental: as §1

T3 sequence (O95786 whole entry): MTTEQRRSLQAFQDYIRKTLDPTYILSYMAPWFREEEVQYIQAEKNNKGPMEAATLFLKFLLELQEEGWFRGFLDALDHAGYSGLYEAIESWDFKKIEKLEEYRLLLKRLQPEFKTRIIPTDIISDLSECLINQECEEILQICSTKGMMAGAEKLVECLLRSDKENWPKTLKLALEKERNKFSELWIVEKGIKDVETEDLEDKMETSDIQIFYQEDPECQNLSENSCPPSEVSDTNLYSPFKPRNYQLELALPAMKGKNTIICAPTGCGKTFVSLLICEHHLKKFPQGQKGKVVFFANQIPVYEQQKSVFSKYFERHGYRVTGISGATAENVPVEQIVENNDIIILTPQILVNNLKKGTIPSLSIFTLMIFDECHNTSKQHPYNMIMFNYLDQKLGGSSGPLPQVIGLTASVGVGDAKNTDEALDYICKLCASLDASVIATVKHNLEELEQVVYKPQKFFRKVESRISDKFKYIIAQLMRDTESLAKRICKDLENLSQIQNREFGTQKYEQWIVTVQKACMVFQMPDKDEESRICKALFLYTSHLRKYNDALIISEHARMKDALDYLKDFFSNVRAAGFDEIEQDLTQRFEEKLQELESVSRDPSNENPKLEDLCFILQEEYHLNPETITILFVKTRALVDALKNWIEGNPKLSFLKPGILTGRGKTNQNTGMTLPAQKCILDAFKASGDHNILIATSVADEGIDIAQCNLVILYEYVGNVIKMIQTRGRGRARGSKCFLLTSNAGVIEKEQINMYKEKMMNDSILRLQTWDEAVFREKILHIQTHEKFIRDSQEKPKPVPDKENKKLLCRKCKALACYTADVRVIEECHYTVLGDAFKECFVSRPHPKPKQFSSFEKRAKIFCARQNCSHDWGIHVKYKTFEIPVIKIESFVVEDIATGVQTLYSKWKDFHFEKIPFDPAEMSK

In the case of `CN(C)CCC=C1c2ccccc2CCc2ccccc21` [Amitriptyline], the “Fold Induction” value (Human Dectin-1b; +Curdlan 100 μg/mL, No Sample 4, Control− 1) is reported as 4, the “Fold Induction” value (Human Dectin-1b; +WGP Soluble 5 ng/mL, No Sample 1, Control− 1) is reported as 1 and the “Fold Induction” value (Human Dectin-1b; +Zymosan Depleted 3 μg/mL, No Sample 7, Control− 1) is reported as “slight inhibitory effect”. For the same compound, the “Fold Induction” value (Human Dectin-1b; +Zymosan Depleted 3 μg/mL, No Sample 7, Control− 1, listed as Ami) was 6, the “Fold induction (ratio of average induced value to average non-induced value)” value (human MDA-5; 5′ppp-dsRNA/LyoVec 500 ng/mL, No Sample 1, Control− 1) was 1 and the “Fold induction (ratio of average induced value to average non-induced value)” value (human MDA-5; Poly(I:C)/LyoVec 500 ng/mL, No Sample 9, Control− 1) was 10. The “Fold induction (ratio of average induced value to average non-induced value)” value (human MDA-5; hIFNα 100 IU/mL, No Sample 255, Control− 1, listed as Ami) was 192, the “Fold induction (ratio of average induced value to average non-induced value)” value (human RIG-I; 5′ppp-dsRNA/LyoVec 500 ng/mL, No Sample 6, Control− 1) was 6 and the “Fold induction (ratio of average induced value to average non-induced value)” value (human RIG-I; Poly(I:C)/LyoVec 500 ng/mL, No Sample 16, Control− 1) was 16.
